The values that follow come from US20190380978A1, “SOLID ORAL DOSAGE FORMS OF 2R,6R-HYDROXYNORKETAMINE OR DERIVATIVES THEREOF” (priority 2016, published 2019).

Where a name gives a salt, the structure may show the parent alone.

One data set is described as follows: in vitro. The following applies: human.
The next data set deals with T1, UGT1A1 (Homo sapiens, UniProt P22309).
T1 sequence (P22309 26-533): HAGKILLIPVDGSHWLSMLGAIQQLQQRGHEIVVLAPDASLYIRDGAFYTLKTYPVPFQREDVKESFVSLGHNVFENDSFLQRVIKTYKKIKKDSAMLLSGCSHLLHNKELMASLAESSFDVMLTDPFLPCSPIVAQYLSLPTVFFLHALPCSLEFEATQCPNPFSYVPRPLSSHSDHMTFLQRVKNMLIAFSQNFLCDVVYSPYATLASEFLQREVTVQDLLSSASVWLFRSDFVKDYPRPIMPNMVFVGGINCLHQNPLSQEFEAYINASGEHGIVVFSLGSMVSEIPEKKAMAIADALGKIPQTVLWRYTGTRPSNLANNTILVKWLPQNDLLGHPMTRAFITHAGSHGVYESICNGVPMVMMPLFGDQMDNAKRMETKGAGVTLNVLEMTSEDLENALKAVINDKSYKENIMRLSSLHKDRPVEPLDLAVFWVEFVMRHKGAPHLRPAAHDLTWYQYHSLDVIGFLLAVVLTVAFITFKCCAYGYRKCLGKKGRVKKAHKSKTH
In words: UGT inhibition assay, UGT1A1. The format is in vitro ADME. The text has this: 2R,6R-hydroxynorketamine was therefore investigated for its potential to inhibit this isozyme, along with that of the major UGT isozyme, UGT1A1, using a UGT inhibition assay.

The subject of the next data set is plasma binding proteins. Conditions: background statement on SSRIs; cited from earlier work.
The next data set has as its target UGT2B7 (Homo sapiens, UniProt P16662). Description: UGT inhibition assay, UGT2B7. It counts as in vitro ADME.

Chain of UGT2B7 (P16662 24-529): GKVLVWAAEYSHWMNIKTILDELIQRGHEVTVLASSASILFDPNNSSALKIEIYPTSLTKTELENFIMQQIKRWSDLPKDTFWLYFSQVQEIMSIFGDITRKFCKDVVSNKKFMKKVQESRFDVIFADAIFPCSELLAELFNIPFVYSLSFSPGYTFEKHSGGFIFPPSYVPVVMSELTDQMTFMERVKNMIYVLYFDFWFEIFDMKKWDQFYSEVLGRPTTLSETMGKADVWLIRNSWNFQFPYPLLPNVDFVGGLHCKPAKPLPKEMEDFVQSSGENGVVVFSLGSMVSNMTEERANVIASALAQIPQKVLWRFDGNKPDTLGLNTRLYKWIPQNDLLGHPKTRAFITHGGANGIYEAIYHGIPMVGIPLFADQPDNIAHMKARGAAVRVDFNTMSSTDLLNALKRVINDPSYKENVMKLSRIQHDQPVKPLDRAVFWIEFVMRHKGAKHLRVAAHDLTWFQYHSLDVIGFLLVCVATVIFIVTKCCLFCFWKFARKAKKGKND

What is called Papp A→B is how fast a substance crosses the layer from the apical side. A low value points to poor permeation. In general, Papp B→A refers to how fast a substance crosses the layer from the basolateral side. On to `CC(C)NCC(O)COc1cccc2ccccc12` (centres unmarked) [propranolol, reference compound], for which the recovery in the data set “in vitro” (Caco-2, Direction = A2B Mean % Recovery, Caco-2, A2B) was determined as 71.1%; in the data set “in vitro” (Caco-2, Direction = B2A Mean % Recovery, Caco-2, B2A) it was 82.8%. For the same compound, the apparent permeability from apical to basolateral (Papp A→B) in “in vitro” (Caco-2, Direction = A2B Mean Papp, Caco-2, A2B, mean, n 2) turned out to be 26.7 ×10⁻⁶ cm/s; in the data set “in vitro” (Caco-2, Direction = A2B Papp Replicate 1, Caco-2, A2B, replicate 1), 26 ×10⁻⁶ cm/s; in “in vitro” (Caco-2, Direction = A2B Papp Replicate 2, Caco-2, A2B, replicate 2), 27.4 ×10⁻⁶ cm/s. In the data set “in vitro” (Caco-2, Direction = B2A Papp Replicate 2, Caco-2, B2A, replicate 2), this compound had a Papp B→A of 26.2 ×10⁻⁶ cm/s.
As usually defined, the IC50 is the midpoint of a concentration-inhibition curve. A high value points to a need for much substance. Compound `COC(=O)N[C@H](C(=O)N[C@@H](Cc1ccccc1)[C@@H](O)CN(Cc1ccc(-c2ccccn2)cc1)NC(=O)[C@@H](NC(=O)OC)C(C)(C)C)C(C)(C)C` [Atazanavir] showed an IC50 against UGT1A1 of 0.153 µM. This lies in the sub-micromolar range.
For `Fc1ccc([C@@H]2CCNC[C@H]2COc2ccc3c(c2)OCO3)cc1` [paroxetine], the protein bound in the data set with plasma binding proteins is 95%.
Regarding `N[C@@]1(c2ccccc2Cl)CCC[C@@H](O)C1=O` [2R-6R-Hydroxynorketamine Hydrochloride, 2R,6R-hydroxynorketamine hydrochloride], the 50% inhibitory concentration (IC50) at UGT2B7 and at UGT1A1 was more than 100 µM throughout.
Consider `CNCCC(Oc1ccc(C(F)(F)F)cc1)c1ccccc1` (centres unmarked) [fluoxetine], for which the protein bound in the data set with plasma binding proteins was 94%.
